Measurements taken from article PMC12803606, “A metabolic comparison of GIPR agonism versus GIPR antagonism in male mice” (Diabetes, Obesity & Metabolism, 2025).

Assays:
[1] = human study, 6‐day GIP infusion; cited from earlier work
Excerpt: We also investigated the effects of GIPR agonism and antagonism on liver triglyceride content.

glucagon secretion = settings: cited from earlier work
Excerpt: We next investigated the effects of GIP108 and NN‐GIPR‐Ant administration on insulin sensitivity.

human adipocytes = settings: acute administration; ex vivo and in vivo glucose uptake; cited from earlier work
Excerpt: Another important focus of this study was the effect of GIP108 and NN‐GIPR‐Ant administration on insulin sensitivity.

[2] = system: osteoblastic and osteoclastic activity; settings: cited from earlier work
CTX = settings: rodent models and humans; cited from earlier work
GIPR = test: Intraperitoneal glucose tolerance test in lean mice, hGIP with NN-GIPR-Ant (in vivo antagonism); set-up: species or system mouse; settings: n = 8, hGIP 50 nmol/kg with glucose 2 g/kg at t = 0
Protocol: (A–C) Amino acid sequences of hGIP (A), GIP108 (B) and NN‐GIPR‐Ant (C). AIB = 2‐aminoisobutyric acid. Side chains denote fatty acid tails. (D–F) cAMP measurements in AD293 cells transiently transfected with the mGIPR (D), mGLP‐1R (E) and mGCGR (F) and stimulated for 30 min with the indicated peptide (n = 3), with three parameter curve fits plotted. (G, H) 60‐min intraperitoneal glucose tolerance test in lean mice (n = 8). (G) Plasma glucose over time with glucose ± hGIP injected at t = 0 and NN‐GIPR‐Ant injected at t = −120 min, analysed using two‐way ANOVA with time and subgroup as co‐variables. (H) Glucose AUC derived from the time course in (H), analysed using a one‐way ANOVA. Dunnett's test was used to correct for multiple comparisons against vehicle control. […] The colour of the star denotes which group is statistically different compared to vehicle control.
All animal procedures were approved by the British Home Office under the UK Animals (Scientific Procedures) Act 1986, and Amendment Regulations, 2012 and approved by the Imperial College London Animal Welfare and Ethical Review Body. Wild type male C57BL/6J mice (8-14 weeks; Charles River, UK) were used. […]
Mice were fasted at 08:00. […] Total glucose AUC was calculated by trapezoidal rule using y=0 as baseline. Glucose readings were measured in mmol/L using the same ISO15197-compliant GlucoRx Nexus (GlucoRx, Guildford, UK) glucometer.

mouse GIPR = test: HTRF cAMP assay, AD293 cells transiently transfected with mGIPR; assay type: cell-based; settings: 30 min, n = 3
Excerpt: For the antagonist we used a long‐acting GIPR antagonist, named throughout as NN‐GIPR‐Ant, previously characterised by Yang et al.[7] We first confirmed the actions of NN‐GIPR‐Ant as a mouse GIPR antagonist, performing in vitro cAMP assays in AD293 cells, a human embryonic kidney cell line commonly used in G‐protein coupled receptor research due to rapid division and ease of receptor transfection.
(A–C) Amino acid sequences of hGIP (A), GIP108 (B) and NN‐GIPR‐Ant (C). AIB = 2‐aminoisobutyric acid. Side chains denote fatty acid tails. (D–F) cAMP measurements in AD293 cells transiently transfected with the mGIPR (D), mGLP‐1R (E) and mGCGR (F) and stimulated for 30 min with the indicated peptide (n = 3), with three parameter curve fits plotted. (G, H) 60‐min intraperitoneal glucose tolerance test in lean mice (n = 8). (G) Plasma glucose over time with glucose ± hGIP injected at t = 0 and NN‐GIPR‐Ant injected at t = −120 min, analysed using two‐way ANOVA with time and subgroup as co‐variables. (H) Glucose AUC derived from the time course in (H), analysed using a one‐way ANOVA. Dunnett's test was used to correct for multiple comparisons against vehicle control. […] The colour of the star denotes which group is statistically different compared to vehicle control. […]

humans = settings: ref 12 (as cited in b3; abstract prints none); cited from earlier work

glucose‐dependent insulinotropic polypeptide [GIP]
liver fat [1]: increased liver fat
glucagon secretion in hypoglycaemia (glucagon secretion): potently stimulate glucagon secretion in hypoglycaemia
insulin sensitising effect in human adipocytes (human adipocytes): increasing adipocyte glucose uptake both ex vivo and in vivo
osteoblastic and osteoclastic activity [2]: increases osteoblastic and suppresses osteoclastic activity
CTX levels, acute (CTX): acutely lowers CTX levels

hGIP: hGIP(1‐42); sequence in Figure 1A (YAEGTFISDYSIAMDKIHQQDFVNWLLAQKGKKNDWKHNITQ; Gastric inhibitory polypeptide; UniProt P09681 52-93, looked up)
improvement of glucose tolerance by hGIP (GIPR): improve glucose tolerance
stimulation of cAMP at mouse GIPR (mouse GIPR): ability to stimulate cAMP

maridebart cafraglutide: Amgen's high‐affinity GIPR antagonist antibody with GLP‐1R agonist conjugate arms
weight loss effects in humans (humans): significant weight loss effects in humans
